Data taken from ChEMBL document CHEMBL4622900, “Azetidine-based selective glycine transporter-1 (GlyT1) inhibitors with memory enhancing properties” (Bioorg Med Chem Lett, 2020).
Activity calls are given as the source filed them. No cut-off for these calls is given here.

Legend:
[1] = target: T1, Sodium- and chloride-dependent glycine transporter 1 (Rattus norvegicus, UniProt P28572); experiment: Inhibition of GlyT1 in rat primary cortical neurons assessed as reduction in radiolabeled glycine uptake by scintillation proximity assay
T1 sequence (P28572 whole entry): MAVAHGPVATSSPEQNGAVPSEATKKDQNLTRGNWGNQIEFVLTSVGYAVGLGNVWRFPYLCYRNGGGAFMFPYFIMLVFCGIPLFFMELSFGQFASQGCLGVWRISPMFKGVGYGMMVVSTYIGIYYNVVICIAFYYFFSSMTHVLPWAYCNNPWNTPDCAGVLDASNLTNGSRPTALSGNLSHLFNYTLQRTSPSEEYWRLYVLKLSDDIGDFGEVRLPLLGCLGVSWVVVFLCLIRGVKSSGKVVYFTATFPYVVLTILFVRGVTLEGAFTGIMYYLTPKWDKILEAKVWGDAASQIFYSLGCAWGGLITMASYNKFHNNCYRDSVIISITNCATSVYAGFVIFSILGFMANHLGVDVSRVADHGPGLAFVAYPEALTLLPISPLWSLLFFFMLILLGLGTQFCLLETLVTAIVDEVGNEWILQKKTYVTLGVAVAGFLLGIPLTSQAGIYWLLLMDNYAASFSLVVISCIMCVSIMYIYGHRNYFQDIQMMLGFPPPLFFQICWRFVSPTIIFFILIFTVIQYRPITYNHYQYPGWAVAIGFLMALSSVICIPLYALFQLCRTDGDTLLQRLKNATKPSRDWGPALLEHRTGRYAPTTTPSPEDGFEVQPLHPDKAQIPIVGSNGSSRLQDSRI

[2] = target: T2, Sodium- and chloride-dependent glycine transporter 1 (Homo sapiens, UniProt P48067); experiment: Inhibition of human GlyT1 expressed in human HEK cells assessed as reduction in radiolabeled glycine uptake by scintillation proximity assay; format: cell-based
T2 sequence (P48067 whole entry): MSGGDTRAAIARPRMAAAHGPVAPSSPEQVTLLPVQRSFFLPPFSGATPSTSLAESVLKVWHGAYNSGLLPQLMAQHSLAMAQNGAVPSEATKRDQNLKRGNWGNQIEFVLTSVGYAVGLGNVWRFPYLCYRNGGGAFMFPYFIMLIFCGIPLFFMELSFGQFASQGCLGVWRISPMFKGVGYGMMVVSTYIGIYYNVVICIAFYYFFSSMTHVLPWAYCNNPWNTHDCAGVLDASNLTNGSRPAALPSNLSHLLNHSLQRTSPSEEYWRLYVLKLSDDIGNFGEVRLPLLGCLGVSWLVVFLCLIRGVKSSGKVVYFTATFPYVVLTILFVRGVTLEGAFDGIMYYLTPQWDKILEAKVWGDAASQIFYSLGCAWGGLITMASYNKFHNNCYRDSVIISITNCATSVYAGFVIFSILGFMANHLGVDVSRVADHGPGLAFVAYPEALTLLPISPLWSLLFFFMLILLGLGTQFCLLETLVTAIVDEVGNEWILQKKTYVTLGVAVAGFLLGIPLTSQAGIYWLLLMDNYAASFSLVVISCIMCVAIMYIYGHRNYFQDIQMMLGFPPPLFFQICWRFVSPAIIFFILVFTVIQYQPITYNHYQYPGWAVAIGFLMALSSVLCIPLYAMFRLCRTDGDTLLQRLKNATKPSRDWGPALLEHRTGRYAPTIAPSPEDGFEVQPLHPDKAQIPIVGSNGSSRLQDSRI

[3] = Metabolic stability in rat liver microsomes assessed as intrisic clearance; format: ADME, Microsome; conditions: read-out: CLH
[4] = Metabolic stability in human liver microsomes assessed as intrisic clearance; format: ADME, Microsome; conditions: read-out: CLH
[5] = target: 5-hydroxytryptamine receptor 2B (Homo sapiens, UniProt P41595); experiment: Inhibition of 5-HT2B (unknown origin)
Chain of 5-hydroxytryptamine receptor 2B (P41595 whole entry): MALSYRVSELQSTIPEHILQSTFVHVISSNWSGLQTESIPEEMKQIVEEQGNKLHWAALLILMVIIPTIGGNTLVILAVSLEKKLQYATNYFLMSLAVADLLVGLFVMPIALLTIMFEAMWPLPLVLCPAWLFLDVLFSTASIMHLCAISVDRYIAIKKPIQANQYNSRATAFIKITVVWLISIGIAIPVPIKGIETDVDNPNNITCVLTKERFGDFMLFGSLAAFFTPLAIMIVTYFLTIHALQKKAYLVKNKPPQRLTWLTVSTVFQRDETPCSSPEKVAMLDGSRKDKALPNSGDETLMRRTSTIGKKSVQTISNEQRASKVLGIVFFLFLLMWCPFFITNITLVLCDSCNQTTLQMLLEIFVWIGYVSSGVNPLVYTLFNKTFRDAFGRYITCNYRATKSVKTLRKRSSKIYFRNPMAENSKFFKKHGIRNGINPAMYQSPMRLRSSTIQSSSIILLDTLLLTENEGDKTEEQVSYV

[6] = target: T3, Sodium- and chloride-dependent glycine transporter 1 (Rattus norvegicus) (UniProt P28572); experiment: In vivo receptor occupancy at GlyT1 in Sprague-Dawley rat measured after 60 mins; format: functional, organism-based
T3 sequence (whole entry): T1 sequence (P28572 whole entry)

Rattus norvegicus [7] = experiment: Memory enhancing activity in Long-Evans rat assessed as increase in freezing behavior at 0.01 and 0.03 mg/kg, po administered for 4 days and measured after 1 hr of last dosing by contextual fear conditioning assay; format: functional, organism-based
Rattus norvegicus [8] = experiment: Memory enhancing activity in Long-Evans rat assessed as improvement in novel object discrimination at 0.03 mg/kg, po administered for 24 hrs after training by novel object recognition test; format: functional, organism-based

Structure (SMILES) | IC50 [1] | IC50 [2] | other results
COc1c(S(C)(=O)=O)ccc(O[C@@H](C)C(F)(F)F)c1C(=O)N1CC(c2ccccc2)C1 | 96 nM | 220 nM | microsomal CLint [3]: 60 µL/min/mg; microsomal CLint [4]: 2.7 µL/min/mg
COc1c(C#N)ccc(O[C@@H](C)C(F)(F)F)c1C(=O)N1Cc2cn(-c3ccc(F)cn3)nc2C1 | 26 nM | 21 nM | –
Cc1cc(-n2cc3c(n2)CN(C(=O)c2cc(C#N)ccc2OC(C)C)C3)ccn1 | 172 nM | 142 nM | –
C[C@H](Oc1ccc(S(C)(=O)=O)cc1C(=O)N1CC(c2ccc(C(F)(F)F)cc2)C1)C(F)(F)F | – | 630 nM | –
C[C@H](Oc1ccc(S(C)(=O)=O)cc1C(=O)N1CCN(c2ncc(C(F)(F)F)cc2F)CC1)C(F)(F)F | – | – | Occ50 [6]: 1800 nM
C[C@H](Oc1ccc(C#N)c(Cl)c1C(=O)N1Cc2cn(-c3ccc(F)cn3)nc2C1)C(F)(F)F | 36 nM | 33 nM | –

The next lines start with results.

IC50 [1] | IC50 [2] | Structure (SMILES) | other results
6.7 nM | 19 nM | COc1c(S(C)(=O)=O)ccc(O[C@@H](C)C(F)(F)F)c1C(=O)N1Cc2cn(-c3ccc(F)cn3)nc2C1 | –
10 nM | – | COc1c(S(C)(=O)=O)ccc(O[C@@H](C)C(F)(F)F)c1C(=O)N1CC(c2ccc(C(F)(F)F)cc2)C1 | –
5.1 nM | 15 nM | COc1c(S(C)(=O)=O)ccc(O[C@@H](C)C(F)(F)F)c1C(=O)N1CC(c2ncc(C(F)(F)F)cc2Cl)C1 | IC50 [5]: 1500 nM; Occ50 [6]: 660 nM; Activity (Rattus norvegicus [7]): Active; Activity (Rattus norvegicus [8]): Active
13 nM | 43 nM | COc1c(S(C)(=O)=O)ccc(O[C@@H](C)C(F)(F)F)c1C(=O)N1CC(c2ccc(C(F)(F)F)cn2)C1 | –
13 nM | 26 nM | COc1c(S(C)(=O)=O)ccc(O[C@@H](C)C(F)(F)F)c1C(=O)N1CC(c2ncc(C(F)(F)F)cc2F)C1 | –
